In US11446270B2, “Leonurine crystal and use thereof in preparation of insulin sensitizer, hypoglycemic drug and lipid-lowering drug” (ZHUHAI HENGQIN NEW DISTRICT ZHONGZHU ZHENGTAI MEDICAL …, priority 2017, dated 2022):
“Also recorded” adds a separate entry of the source.

How the values were obtained:
[1] = previous toxicological study; cited from earlier work
Sprague-Dawley male rats [2] = test: Chronic continuous administration for 7 days, insulin sensitivity test in rats; type: in vivo; settings: rat, vs control, listed as leonurine crystal form A
Procedure: Twenty Sprague-Dawley male rats (body weight 180-220 g) were randomly divided into 4 groups, give control solvent and three different doses of leonurine crystal form A respectively. The control solvent group was given an equal volume of DMSO, and the treatment groups were administered at three doses of 30 mg/kg, 60 mg/kg and 120 mg/kg respectively, 5 rats per group, where the leonurine crystal form A was dissolved in DMSO at concentrations of 30 mg/ml, 60 mg/ml and 120 mg/ml respectively. The volume of solvent used per rat is one millilitre per kilogram of body weight. The rats were administered intragastrically with the drugs or control solvent once a day for 7 consecutive days, and performing insulin sensitivity test on the 7th day. The rats were treated with the drugs or control solvent on the day of the test, and weighed before administration, then taking blood from tail vein to measure blood glucose. Each rat was tested for insulin sensitivity 1 hour after administration of the drugs or control solvent, and the rats were not fed food for 4 hours before the insulin sensitivity test to make them fasted but still given water. The insulin dose in the insulin sensitivity test is 0.75 units per kilogram of body weight, and insulin was injected through intraperitonealion. Blood glucose was measured before injection and at 15, 30, 60, 90, and 120 minutes after injection. The data were analyzed by SPSS statistical software (version 11.5), and the results were expressed as mean ±standard error of the mean (mean±SEM). Multiple group comparisons were tested by one-way analysis of variance (ANOVA). P<0.05 was considered as statistically significant.

[3] = Hygroscopicity, dynamic vapor sorption (DVS), 0-95% RH; type: physicochemical; settings: for hygroscopicity (in words) / change of crystal form: range of 0-95% relative humidity
Procedure: Dynamic vapor sorption (DVS) method, instrument model: SMS DVS Intrinsic, 0˜95% RH, temperature: 25° C.; FTIR method, instrument model: Nicolet 6700, sectral range: 4000˜400 cm^−1, resolution ratio: 4 cm^−1, scanning times: 32, the infrared spectra of the samples were determined by KBr pressed-disk technique method, temperature: 25° C.;
In this invention, it is named as leonurine crystal form A, which is monohydrate crystal form, square block crystal (as shown in FIG. 13), no crystal transformation before melting, dehydrates at 120˜150° C. and transform into anhydrous crystal form B, and decomposes at about 250° C. […] Under the condition of, in the suspension experiment at 25° C., in methanol, ethanol, isopropanol, acetone, acetonitrile, tetrahydrofuran, nitromethane, ethyl acetate, isopropyl acetate, isoamyl alcohol, methyl tert-butyl ether, toluene, methyl isobutyl ketone, n-hexane, n-heptane, ether, dichloromethane, chloroform, petroleum ether, water and other solvents; and under the condition of, in the suspension experiment at 50° C., in methanol, ethanol, acetone, methyl ethyl ketone, isopropyl acetate, methyl tert-butyl ether, toluene, n-hexane, n-heptane, diethyl ether, chloroform, petroleum ether, water and other solvents; and under most solvent conditions in suspension and volatilization of mixed solvents at 25° C. and 50° C., form A can be obtained. […] In a range of 0˜95% RH, the dehydration and water absorption behavior of the crystal form is very weak.

Sprague-Dawley male rats [4] = test: Single dosage acute administration, insulin sensitivity test in rats; type: in vivo; settings: rat, vs DMSO control
Procedure: Thirty-two Sprague-Dawley male rats (body weight 180-220 g) were randomly divided into 4 groups, gave control solvent and three different doses of leonurine crystal form A respectively. The control solvent group was given an equal volume of DMSO, and the treatment groups were administered with three doses of 30 mg/kg, 60 mg/kg and 120 mg/kg respectively, 8 rats per group, where the leonurine crystal form A was dissolved in DMSO at concentrations of 30 mg/ml, 60 mg/ml and 120 mg/ml respectively. The volume of solvent obtained per rat is one millilitre per kilogram of body weight. The route of administration is gavage, weighing before gavage, and taking blood from tail vein to measure blood glucose. Each rat was tested for insulin sensitivity 1 hour after administration of drugs or control solvent, the dose of insulin selected was 0.5 units per kilogram of body weight, intraperitoneal injection of insulin, blood glucose was measured before injection and at 15, 30, 60, 90, and 120 minutes after injection. The data were analyzed by SPSS 11.5 statistical software, and the results were expressed as mean ±standard error of the mean (mean±SEM), pairwise comparison between groups was examined by one-way analysis of variance (ANOVA), P<0.05 was considered significant difference between the groups.

ApoE knockout mice = test: Serum lipids in hyperlipidemia ApoE knockout mice on high fat diet; type: in vivo; settings: 4 weeks
Procedure: Fifteen C57BL/6J mice (male, 6-8 weeks) and seventy-five ApoE knockout mice (male, 6-8 weeks) were used for experiments. C57BL/6J mice were fed with normal diet, and ApoE knockout mice were fed for 1 week with a diet of normal/high fat diet ratio of 1/1.
Mice were weighed before administered drugs every week, where the dosage of the drug for mice is calculate according to the weight; and housed under 24±1° C. room temperature and 55±5% air humidity condition, and allowed enough food and water ad libitum. After the drug administration continuously for 4 weeks, the mice were anesthetized with pentobarbital sodium according to body weight. Blood (0.5 ml per mouse) was drawn from the inner canthus vein for hematology analysis. Hematology analysis: blood samples were let for standing for 2 h and centrifuged (3000 rpm, 10 min, 4° C.) to obtain serum. The total cholesterol (TC), triacylglycerol (TG) and low-density cholesterol (LDL-C) levels in the serum samples were assessed using automatic biochemical analyzer. Statistical analysis: GraphPad Prism 5 software was used to analyze and draw figure. Results were expressed as the mean±standard (mean±SD), and statistical analysis was performed by one-way analysis of variance (ANOVA) or student's t test. A difference with P<0.05 was considered statistically significant. Statistical significance was set at *P<0.05, **P<0.01, ***P<0.001 versus the model group.

[5] = listed as leonurine crystal form A
[6] = dose not stated, listed as leonurine crystal form A
[7] = middle dose group 20 mg/kg/day intragastric, vs model group, listed as leonurine crystal form A

SMILES: COc1cc(C(=O)OCCCCNC(=N)N)cc(OC)c1O [crystal form A, 4-guanidino-1-butyl 4-hydroxy-3,5-dimethoxybenzoate]
- toxicity [1]: very low
- insulin sensitivity curve (Sprague-Dawley male rats [2]; 30 mg/kg/d for 7 days, 30 minute time point, 30 mg/kg/day): increased insulin sensitivity; also recorded: decreased significantly
- insulin sensitivity curve (Sprague-Dawley male rats [2]; 30 mg/kg/d for 7 days, 60 minute time point, 30 mg/kg/day): increased insulin sensitivity; also recorded: decreased significantly
- insulin sensitivity curve (Sprague-Dawley male rats [2]; 30 mg/kg/d for 7 days, 90 minute time point, 30 mg/kg/day): increased insulin sensitivity; also recorded: decreased significantly
- insulin sensitivity curve (Sprague-Dawley male rats [2]; 60 mg/kg/d for 7 days, 30 minute time point, 60 mg/kg/day): increased insulin sensitivity; also recorded: decreased significantly
- insulin sensitivity curve (Sprague-Dawley male rats [2]; 60 mg/kg/d for 7 days, 60 minute time point, 60 mg/kg/day): increased insulin sensitivity; also recorded: decreased significantly
- insulin sensitivity curve (Sprague-Dawley male rats [2]; 60 mg/kg/d for 7 days, 90 minute time point, 60 mg/kg/day): increased insulin sensitivity; also recorded: decreased significantly
- insulin sensitivity curve (Sprague-Dawley male rats [2]; 120 mg/kg/d for 7 days, 60 minute time point, 120 mg/kg/day): increased insulin sensitivity; also recorded: decreased significantly
- hygroscopicity, water absorption ([3]; 60% RH): 60% RH, water absorption 0.07%
- hygroscopicity, water absorption ([3]; 80% RH): 80% RH, water absorption 0.12%
- hygroscopicity (in words) [3]: no or almost no hygroscopicity
- change of crystal form ([3]; listed as Crystal Form A): didn't change
- hygroscopicity (in words) ([3]; listed as Crystal Form A): no or almost no hygroscopicity
- change of crystal form [3, 5]: does not change
- hygroscopicity (in words) [3, 5]: no or almost no hygroscopicity
- moisture absorption ([3]; relative humidity from 0 to 95%): about 0.15%
- insulin sensitivity curve (blood glucose after insulin injection) (Sprague-Dawley male rats [4]; single gavage 30 mg/kg): basically coincident with the control group
- insulin sensitivity curve (blood glucose after insulin injection) (Sprague-Dawley male rats [4]; single gavage 60 mg/kg, 60 minute time point, listed as leonurine crystal form A, 60 mg/kg): reached statistical significance; also recorded: decreased significantly
- insulin sensitivity curve (blood glucose after insulin injection) (Sprague-Dawley male rats [4]; single gavage 120 mg/kg, 60 minute time point): no statistically significant difference was observed
- serum low-density lipoprotein / low-density cholesterol (LDL-C) (ApoE knockout mice; [6]): reduce; also recorded: significantly decrease
- serum total cholesterol (TC) (ApoE knockout mice; [6]): reduce; also recorded: significantly decrease
- serum triglycerides / triacylglycerol (TG) (ApoE knockout mice; [6]): reduce; also recorded: significantly decrease
- serum total cholesterol (TC) (ApoE knockout mice; middle dose group 20 mg/kg/day intragastric, vs model group): reduced
- serum low-density cholesterol (LDL-C) (ApoE knockout mice; [7]): reduced; also recorded: decrease
- serum triacylglycerol (TG) (ApoE knockout mice; [7]): reduced; also recorded: decrease
